Test results reported in patent US20260327233A1, “Heteroaryl Compounds as Ligand Directed Degraders of IRAK4” (Celgene Corporation, priority 2023, published 2026).
Structures can show the parent of a compound that is named as a salt.

Legend:
IRAK4 [1] = biological target: T1, IRAK4 (Homo sapiens, UniProt Q9NWZ3); test: ALE THP1 HTRF (IRAK4 HTRF in THP1 cell lysate, Cisbio HTRF kit); type: cell-based; design: THP1 Homogeneous Time Resolved Fluorescence (ALE THP1 HTRF) Procedure; endogenous in cells; host or cells: THP1; settings: anti-IRAK4 d2 / anti-IRAK4 k antibodies
T1 sequence (Q9NWZ3 1-460): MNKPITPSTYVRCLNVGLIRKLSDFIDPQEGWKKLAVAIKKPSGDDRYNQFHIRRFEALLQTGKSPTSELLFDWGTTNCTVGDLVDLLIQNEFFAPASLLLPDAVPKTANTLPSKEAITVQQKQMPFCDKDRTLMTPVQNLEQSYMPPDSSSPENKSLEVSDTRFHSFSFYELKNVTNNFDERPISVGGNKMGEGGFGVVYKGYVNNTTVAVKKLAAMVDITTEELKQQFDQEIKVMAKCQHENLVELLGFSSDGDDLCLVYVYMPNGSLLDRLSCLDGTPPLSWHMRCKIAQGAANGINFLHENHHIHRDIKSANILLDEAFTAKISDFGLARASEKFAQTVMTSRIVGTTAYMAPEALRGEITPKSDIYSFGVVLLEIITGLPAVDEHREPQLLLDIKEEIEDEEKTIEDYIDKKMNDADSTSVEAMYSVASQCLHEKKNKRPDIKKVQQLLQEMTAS
Protocol: Cell culture media was prepared in a tissue culture hood in a sterile environment by adding 10% FBS and 1% Penicillin Streptomycin to 500 mL no phenol red RPMI 1640 media. The media was filtered through a Nalgene Bottle Top Filter and stored at 4° C.
For Homogenous Time Resolved Fluorescence (HTRF) assays, a Cisbio HTRF kit was used, which included: Lysis Buffer #1 4×, Blocking Reagent #3 100×, 20× Antibody 1 (Anti-IRAK4 d2), 20× Antibody 2 (Anti-IRAK4 k), and Detection Buffer.
4× Lysis Buffer was stored at 4° C. For use as 1× Lysis buffer, the 4× solution was diluted with de-ionized water (distilled water, Gibco Cat. #15230279) and 100× Blocking Reagent in a 1:3:0.04 volume ratio.
20× Antibody Solution aliquots were stored at −80° C. and the Detection Buffer was stored at 4° C. For use as a 1× Antibody Solution, the 20× Antibody Solution aliquot was diluted with Detection Buffer in a 1:19 volume ratio.
Cells were lysed at room temperature for 45 min with shaking. A BCA protein assay was performed and normalization was conducted to the desired total protein concentration with 1× lysis buffer. Next, 1× Antibody Solutions were prepared by adding 380 μL Detection Buffer to 20 μL 20× Antibody Solution aliquots and mixing well. 1× Antibody Solutions were combined 1:1 and briefly vortexed. For control wells, 20 μL 1× anti IRAK4-k Antibody Solution was saved. The 384-well plate (ProxiPlate-384 Plus, Perkin Elmer Cat. #6008289) was loaded by adding 4 μL of the mixed Antibody Solution to empty wells using a single channel repeater. Using a multi-channel repeater, 16 μL lysate was added per well, and any bubbles that were formed were popped with 20 μL pipette tips and Kimwipe edges. In column 10, triplicates of each control were prepared. In wells A10, B10, and C10, buffer control was prepared by adding 16 μL Lysis Buffer and 4 μL Detection Buffer. In wells D10, E10, and F10, cryptate control was prepared by adding 16 μL Lysis Buffer, 2 μL Detection Buffer, and 2 μL 1× anti-IRAK4-k Antibody Solution. In wells G10, H10, and 110, a negative control was prepared by adding 16 μL Lysis Buffer and 4 μL mixed Antibody Solution. The plate was sealed with a clear seal and covered with an aluminum lid. The plate was spun down at 800 g for 5 min and incubated in the dark at room temperature overnight. The next day, the plate was spun down at 800 g for 5 min. The samples were analyzed by a plate reader (Envision, PerkinElmer) using the Desnor 384 HTRF program.

IRAK4 [2] = biological target: T1, IRAK4; test: IRAK4 PhosphoSens Biochemical Assay (BIOCHEM); settings: IRAK4 1 nM; ATP and Sox conjugated peptide substrate AQT0326; pH 7.5; room temperature; 240 minutes
Protocol: The PhosphoSens® biochemical assay was performed as described by the vendor (AssayQuant Technologies Inc. Marlborough, MA). A 1.25× stock solution of IRAK4 (PV4002, ThermoFisher Scientific, Waltham, MA) and a 5× stock solution of ATP and Sox conjugated peptide substrate, AQT0326 (CSKS-AQT0326B, AssayQuant Technologies), were prepared in 1× kinase reaction buffer consisting of 50 mM HEPES, pH 7.5, 0.01% Brij-35, 0.5 mM EGTA, 20 mM MgCl2 and 1 mM DTT. 10 μL of the ATP and substrate solution mix, for a final concentration of 200 µM ATP and […] peptide substrate, was added to a Corning 3574 384-well, white, non-binding surface microtiter plate containing 0.5 μL of serially diluted test compounds prepared in DMSO. The reactions were started with the addition of 40 μL of the enzyme solution, for a final IRAK4 concentration of 1 nM, and monitored every 71 seconds for 240 minutes at λEX 360/λEM 485 in a BioTek Synergy H4 plate reader (Agilent Technologies, Santa Clara, CA) at room temperature. The initial linear portions of the progress curves were fit according to a linear equation to yield the slopes and converted to % inhibition based on a value of 100% activity for the no inhibitor treated control. IC50 values of each compound were obtained by fitting the % inhibition-compound concentration curves using Dotmatics software (Dotmatics, Bishops Stortford, Hertfordshire, England),

EC50 (IRAK4 [1]) [nM] | ALE THP1 HTRF YMIN (IRAK4 [1]) [%] | IC50 (IRAK4 [2]) [nM] | Structure (SMILES)
2820 | 26 | 8.1 | N#Cc1nn([C@H]2CC[C@H](CN3CCN(c4ccc5c(c4)C(=O)N(C4CCC(=O)NC4=O)C5=O)CC3)CC2)cc1NC(=O)c1cnn2ccc(N3CCNCC3)nc12 (stereo partly drawn) [Compound P-6, N-[3-Cyano-1-[4-[[4-[2-(2,6-dioxo-3-piperidyl)-1,3-dioxo-isoindolin-5-yl]piperazin-1-yl]methyl]cyclohexyl]pyrazol-4-yl]-5-piperazin-1-yl-pyrazolo[1,5-a]pyrimidine-3-carboxamide dihydrochloride]
13 | 41 | 0.5 | O=C1CCC(N2C(=O)c3ccc(N4CCN(C(=O)C5CCC(n6cc(NC(=O)c7cnn8ccc(N9CCNCC9)nc78)c(C(F)F)n6)CC5)CC4)cc3C2=O)C(=O)N1 (stereo not drawn) [Compound P-16]
